Square brackets hold non-standard residues; d marks the D form. Peptide text beside a SMILES is read from it. Aib = CC(C)(N)C(=O)O
How the values were obtained:
human GLP-2 receptor = target: T1, human GLP-2 receptor (Homo sapiens, UniProt O95838, D470N); test: GLP-2 receptor potency assay (cAMP AlphaScreen, HEK293 cells stably expressing GLP-2R); format: cell-based; conditions: cAMP response, HEK293 cells expressing human GLP-2R
T1 sequence (O95838 1-553 D470N): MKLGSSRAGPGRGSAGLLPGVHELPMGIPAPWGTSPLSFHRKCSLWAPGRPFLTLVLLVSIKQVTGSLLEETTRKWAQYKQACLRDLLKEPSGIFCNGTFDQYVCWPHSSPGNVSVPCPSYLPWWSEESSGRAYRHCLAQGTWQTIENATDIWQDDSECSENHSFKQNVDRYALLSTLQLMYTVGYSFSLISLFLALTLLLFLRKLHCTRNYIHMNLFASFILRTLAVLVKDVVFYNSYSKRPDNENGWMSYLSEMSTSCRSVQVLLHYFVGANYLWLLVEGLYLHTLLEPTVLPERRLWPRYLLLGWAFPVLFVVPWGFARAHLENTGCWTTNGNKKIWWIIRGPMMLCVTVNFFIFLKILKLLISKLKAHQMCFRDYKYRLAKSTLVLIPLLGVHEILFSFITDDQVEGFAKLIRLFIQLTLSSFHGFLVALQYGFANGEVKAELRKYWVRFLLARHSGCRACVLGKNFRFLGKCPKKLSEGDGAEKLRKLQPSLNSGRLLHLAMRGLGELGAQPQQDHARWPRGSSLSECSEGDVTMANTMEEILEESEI
Text: (§1) One useful in vitro assay for measuring GLP-1 and GLP-2 receptor activity is quantitation of cAMP, i.e. 3′-5′-cyclic adenosine monophosphate, which is a second messenger essential in many biological processes, and one of the most ubiquitous mechanisms for regulating cellular functions. […] Test compounds eliciting an increase in the intracellular level of cAMP can be tested in these assays, and the response normalized relative to a positive and negative control (vehicle) to calculate the EC50 and maximal response from the concentration response curve using the 4-parameter logistic (4PL) nonlinear model for curve fitting.
The hGLP2-R was purchased from MRC-geneservice, Babraham, Cambridge as an Image clone: 5363415 (11924-I17). For subcloning into a mammalian expression vector, primers for subcloning were obtained from DNA-Technology, Risskov, Denmark. The 5′ and 3′ primers used for the PCR reaction include terminal restriction sites for cloning and the context of the 5′ primer is modified to a Kozak consensus without changing the sequence of the product encoded by the ORF. A standard PCR reaction was run using Image clone 5363415 (11924-117) as a template with the above mentioned primers and Polymerase Herculase II Fusion in a total vol. of 50 μl. The generated PCR product was purified using GFX PCR and Gel band purification kit, digested with restriction enzymes and cloned into the mammalian expression vector using Rapid DNA Ligation Kit. Ligation reaction was transformed to XL10 Gold Ultracompetent cells and colonies were picked for DNA production using Endofree Plasmid maxi kit. Subsequent sequence analysis was conducted by MWG Eurofins, Germany.
HEK293 cells were transfected using the Lipofectamine PLUS transfection method. The day before transfection, HEK293 cells were seeded in two T75 flasks at a density of 2×10^6 cells/T75 flask in cell culturing medium without antibiotics. On the day of transfection, cells were washed with 1×DPBS and medium was replaced with Optimem to a volume of 5 mL/T75 flask before addition of Lipofectamine-plasmid complexes were added gently and drop wise to the cells in T75 flasks and replaced with growth medium after 3 hours and again to growth medium supplemented with 500 μg/mL G418 after 24 hours. Following 4 weeks in G418 selection, clones were picked and tested in a functional GLP-2 receptor potency assay as described below.
(§2) The cAMP AlphaScreen assay from Perkin Elmer was used to quantitate the cAMP response to activation of the GLP1 and GLP2 receptor, respectively. […] Data from test compounds eliciting an increase in the intracellular level of cAMP were normalized relative to the positive and negative control (vehicle) to calculate the EC50 and maximal response from the concentration response curve.

human GLP-1 receptor = target: T2, human GLP-1 receptor (Homo sapiens, UniProt P43220); test: GLP-1 receptor potency assay (cAMP AlphaScreen, HEK293 cells stably expressing GLP-1R); format: cell-based; conditions: cAMP response, HEK293 cells expressing human GLP-1R; read-out: EC50 GLP-1
T2 construct: expressed in transfected cells
T2 sequence (P43220 24-463): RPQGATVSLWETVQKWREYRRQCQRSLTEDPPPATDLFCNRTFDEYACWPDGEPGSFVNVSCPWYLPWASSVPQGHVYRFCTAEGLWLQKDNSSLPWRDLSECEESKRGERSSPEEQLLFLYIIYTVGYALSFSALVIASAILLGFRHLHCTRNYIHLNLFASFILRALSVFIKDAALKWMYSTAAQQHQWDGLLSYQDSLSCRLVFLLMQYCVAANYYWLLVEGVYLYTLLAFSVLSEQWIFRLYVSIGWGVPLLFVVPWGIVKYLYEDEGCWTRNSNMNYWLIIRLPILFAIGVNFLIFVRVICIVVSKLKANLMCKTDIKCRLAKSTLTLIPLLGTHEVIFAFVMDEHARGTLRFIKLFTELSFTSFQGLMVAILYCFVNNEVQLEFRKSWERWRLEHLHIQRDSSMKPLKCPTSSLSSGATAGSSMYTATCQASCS
Text: as §1
The cDNA encoding the human glucagon-like peptide 1 receptor (GLP-1R) (primary accession number P43220) was cloned from the cDNA BC112126 (MGC:138331/IMAGE:8327594). The DNA encoding the GLP-1-R was amplified by PCR using primers encoding terminal restriction sites for subcloning. The 5′-end primers additionally encoded a near Kozak consensus sequence to ensure efficient translation. […] The PCR products encoding the GLP-1-R were subcloned into a mammalian expression vector containing a neomycin (G418) resistance marker. The mammalian expression vectors encoding the GLP-1-R were transfected into HEK293 cells by a standard calcium phosphate transfection method. 48 hours post-transfection, cells were seeded for limited dilution cloning and selected with 1 mg/ml G418 in the culture medium. Following 3 weeks in G418 selection clones were picked and tested in a functional GLP-1 receptor potency assay as described below.
as §2

SMILES | EC50 (human GLP-2 receptor) [nM] | EC50 (human GLP-1 receptor) [nM]
CC[C@H](C)[C@H](NC(=O)[C@H](CC(C)C)NC(=O)[C@H](Cc1c[nH]c2ccccc12)NC(=O)[C@H](C)NC(=O)[C@@H](NC(=O)[C@H](Cc1ccccc1)NC(=O)[C@H](CC(=O)O)NC(=O)[C@H](CCCNC(=N)N)NC(=O)[C@H](C)NC(=O)[C@H](C)NC(=O)[C@H](CCCCN)NC(=O)CNC(=O)[C@H](CC(=O)O)NC(=O)[C@H](CC(C)C)NC(=O)[C@@H](NC(=O)[C@@H](NC(=O)[C@H](C)NC(=O)[C@H](CC(C)C)NC(=O)[C@H](CCC(=O)O)NC(=O)[C@H](CO)NC(=O)[C@H](CO)NC(=O)[C@H](Cc1ccccc1)NC(=O)[C@@H](NC(=O)CNC(=O)[C@H](CCC(=O)O)NC(=O)C(C)(C)NC(=O)[C@@H](N)Cc1c[nH]cn1)[C@@H](C)O)[C@@H](C)O)[C@@H](C)CC)[C@@H](C)CC)C(=O)N[C@@H](C)C(=O)N[C@@H](Cc1c[nH]cn1)C(=O)N[C@@H](CCCCN)C(=O)N[C@H](C(=O)N[C@H](C(=O)N[C@@H](CC(=O)O)C(=O)O)[C@@H](C)O)[C@@H](C)CC [Compound 32] (H-H[Aib]EGTFSSELATILDGKAARDFIAWLIAHKITD-OH) | 0.15 | 0.038
CC[C@H](C)[C@H](NC(=O)[C@H](Cc1ccccc1)NC(=O)[C@H](CC(=O)O)NC(=O)[C@H](CCCNC(=N)N)NC(=O)[C@H](C)NC(=O)[C@H](C)NC(=O)[C@H](CCC(N)=O)NC(=O)[C@H](CCC(=O)O)NC(=O)[C@H](CC(=O)O)NC(=O)[C@H](CC(C)C)NC(=O)[C@@H](NC(=O)[C@@H](NC(=O)[C@H](C)NC(=O)[C@H](CC(C)C)NC(=O)[C@H](CCC(=O)O)NC(=O)[C@H](CO)NC(=O)[C@@H](NC(=O)[C@H](Cc1ccccc1)NC(=O)[C@H](CO)NC(=O)CNC(=O)[C@H](CCC(=O)O)NC(=O)C(C)(C)NC(=O)[C@@H](N)Cc1c[nH]cn1)[C@@H](C)O)[C@@H](C)O)[C@@H](C)CC)C(=O)N[C@@H](C)C(=O)N[C@@H](Cc1c[nH]c2ccccc12)C(=O)N[C@@H](CC(C)C)C(=O)N[C@@H](Cc1ccc(O)cc1)C(=O)N[C@@H](CCC(=O)O)C(=O)N[C@@H](Cc1c[nH]cn1)C(=O)N[C@@H](CCCCN)C(=O)N[C@H](C(=O)N[C@H](C(=O)N[C@@H](CC(=O)O)C(=O)O)[C@@H](C)O)[C@@H](C)CC [Compound 23] (H-H[Aib]EGSFTSELATILDEQAARDFIAWLYEHKITD-OH) | 0.034 | 0.12
CC[C@H](C)[C@H](NC(=O)[C@H](Cc1ccccc1)NC(=O)[C@H](CC(=O)O)NC(=O)[C@H](CCCNC(=N)N)NC(=O)[C@H](C)NC(=O)[C@H](C)NC(=O)[C@H](CCC(N)=O)NC(=O)[C@H](CCC(=O)O)NC(=O)[C@H](CC(=O)O)NC(=O)[C@H](CC(C)C)NC(=O)[C@@H](NC(=O)[C@@H](NC(=O)[C@H](C)NC(=O)[C@H](CC(C)C)NC(=O)[C@H](CCC(=O)O)NC(=O)[C@H](CO)NC(=O)[C@@H](NC(=O)[C@H](Cc1ccccc1)NC(=O)[C@H](CO)NC(=O)CNC(=O)[C@H](CCC(=O)O)NC(=O)C(C)(C)NC(=O)[C@@H](N)Cc1c[nH]cn1)[C@@H](C)O)[C@@H](C)O)[C@@H](C)CC)C(=O)N[C@@H](C)C(=O)N[C@@H](Cc1c[nH]c2ccccc12)C(=O)N[C@@H](CC(C)C)C(=O)N[C@@H](Cc1ccc(O)cc1)C(=O)N[C@@H](C)C(=O)N[C@@H](Cc1c[nH]cn1)C(=O)N[C@@H](CCCCN)C(=O)N[C@H](C(=O)N[C@H](C(=O)N[C@@H](CC(=O)O)C(=O)O)[C@@H](C)O)[C@@H](C)CC [Compound 28] (H-H[Aib]EGSFTSELATILDEQAARDFIAWLYAHKITD-OH) | 0.024 | 0.11
CC[C@H](C)[C@H](NC(=O)[C@H](CC(C)C)NC(=O)[C@H](Cc1c[nH]c2ccccc12)NC(=O)[C@H](C)NC(=O)[C@@H](NC(=O)[C@H](Cc1ccccc1)NC(=O)[C@H](CC(=O)O)NC(=O)[C@H](CCCNC(=N)N)NC(=O)[C@H](C)NC(=O)[C@H](C)NC(=O)[C@H](CCC(N)=O)NC(=O)[C@H](CCC(=O)O)NC(=O)[C@H](CC(=O)O)NC(=O)[C@H](CC(C)C)NC(=O)[C@@H](NC(=O)[C@@H](NC(=O)[C@H](C)NC(=O)[C@H](CC(C)C)NC(=O)[C@H](CCC(=O)O)NC(=O)[C@H](CO)NC(=O)[C@H](CO)NC(=O)[C@H](Cc1ccccc1)NC(=O)[C@@H](NC(=O)CNC(=O)[C@H](CCC(=O)O)NC(=O)C(C)(C)NC(=O)[C@@H](N)Cc1c[nH]cn1)[C@@H](C)O)[C@@H](C)O)[C@@H](C)CC)[C@@H](C)CC)C(=O)N[C@@H](C)C(=O)N[C@@H](Cc1c[nH]cn1)C(=O)N[C@@H](CCCCN)C(=O)N[C@H](C(=O)N[C@H](C(=O)N[C@@H](CC(=O)O)C(=O)O)[C@@H](C)O)[C@@H](C)CC [Compound 2] (H-H[Aib]EGTFSSELATILDEQAARDFIAWLIAHKITD-OH) | 0.034 | 0.046

The remaining molecules from weak to strong by EC50 (human GLP-2 receptor), led by results:

EC50 (human GLP-2 receptor) [nM] | EC50 (human GLP-1 receptor) [nM] | SMILES
0.085 | 0.011 | CC[C@H](C)[C@H](NC(=O)[C@H](CC(C)C)NC(=O)[C@H](Cc1c[nH]c2ccccc12)NC(=O)[C@H](C)NC(=O)[C@@H](NC(=O)[C@H](Cc1ccccc1)NC(=O)[C@H](CC(=O)O)NC(=O)[C@H](CCCNC(=N)N)NC(=O)[C@H](C)NC(=O)[C@H](C)NC(=O)[C@H](CCCCN)NC(=O)CNC(=O)[C@H](CC(=O)O)NC(=O)[C@H](CC(C)C)NC(=O)[C@@H](NC(=O)[C@@H](NC(=O)[C@H](C)NC(=O)[C@H](CC(C)C)NC(=O)[C@H](CCC(=O)O)NC(=O)[C@H](CO)NC(=O)[C@@H](NC(=O)[C@H](Cc1ccccc1)NC(=O)[C@@H](NC(=O)CNC(=O)[C@H](CCC(=O)O)NC(=O)C(C)(C)NC(=O)[C@@H](N)Cc1c[nH]cn1)[C@@H](C)O)[C@@H](C)O)[C@@H](C)O)[C@@H](C)CC)[C@@H](C)CC)C(=O)N[C@@H](C)C(=O)N[C@@H](Cc1c[nH]cn1)C(=O)N[C@@H](CCCCN)C(=O)N[C@H](C(=O)N[C@H](C(=O)N[C@@H](CC(=O)O)C(=O)O)[C@@H](C)O)[C@@H](C)CC [Compound 11] (H-H[Aib]EGTFTSELATILDGKAARDFIAWLIAHKITD-OH)
0.076 | 0.055 | CC[C@H](C)[C@H](NC(=O)[C@H](Cc1ccccc1)NC(=O)[C@H](CC(=O)O)NC(=O)[C@H](CCCNC(=N)N)NC(=O)[C@H](C)NC(=O)[C@H](C)NC(=O)[C@H](CCC(N)=O)NC(=O)[C@H](CCC(=O)O)NC(=O)[C@H](CC(=O)O)NC(=O)[C@H](CC(C)C)NC(=O)[C@@H](NC(=O)[C@@H](NC(=O)[C@H](C)NC(=O)[C@H](CC(C)C)NC(=O)[C@H](CCC(=O)O)NC(=O)[C@H](CO)NC(=O)[C@@H](NC(=O)[C@H](Cc1ccccc1)NC(=O)[C@@H](NC(=O)CNC(=O)[C@H](CCC(=O)O)NC(=O)C(C)(C)NC(=O)[C@@H](N)Cc1c[nH]cn1)[C@@H](C)O)[C@@H](C)O)[C@@H](C)O)[C@@H](C)CC)C(=O)N[C@@H](C)C(=O)N[C@@H](Cc1c[nH]c2ccccc12)C(=O)N[C@@H](CC(C)C)C(=O)N[C@@H](Cc1c[nH]cn1)C(=O)N[C@@H](C)C(=O)N[C@@H](Cc1c[nH]cn1)C(=O)N[C@@H](CCCCN)C(=O)N[C@H](C(=O)N[C@H](C(=O)N[C@@H](CC(=O)O)C(=O)O)[C@@H](C)O)[C@@H](C)CC [Compound 12] (H-H[Aib]EGTFTSELATILDEQAARDFIAWLHAHKITD-OH)

— US11130793B2, “GLP-1/GLP-2 dual agonists” (Zealand Pharma A/S, priority 2016, dated 2021)
